In ChEMBL document CHEMBL1157500, “Spiroleptosphol isolated from Leptosphaeria doliolum” (Bioorg Med Chem Lett, 2008):
≈ marks a conversion by molar mass, not a printed value.

Tested on: P388
Assay: Cytotoxicity against mouse P388 cells
Assay type: functional, cell-based

`C=C1OC(=O)[C@@]2([C@H](/C=C/[C@H](C)C[C@H](C)CC)C=C[C@@H](O)[C@@H]2O)[C@H]1O` [SPIROLEPHTOSHOL] gave an EC50 of 20 µg/mL (≈ 59.4 µM).
